Each structure is given as a SMILES string. Starred links: 1 amine or outer side, 2 acyl side, 3 side chain; linkers in the order of their positions; H or OH if unused. Positions of bridges follow the written chain, without caps; N, C: chain ends. Non-standard residues stand in square brackets, D forms with d. Residues, ends and D or L forms follow the SMILES beside them. Groups on a side chain read outwards from the residue. *: point of attachment. Ala(1-CH2CO2H-4-piperidyl) = N[C@@H](CC1CCN(CC(=O)O)CC1)C(=O)O; Ala(piperidin-4-yl) = O=C([C@H](CC1CCN([*:3])CC1)N[*:1])[*:2]; DOTA = O=C(O)CN1CCN(CC(=O)O)CCN(CC(=O)*)CCN(CC(=O)O)CC1; Trp(5-F) = N[C@@H](Cc1c[nH]c2ccc(F)cc12)C(=O)O; Trp(7-aza) = N[C@@H](Cc1c[nH]c2ncccc12)C(=O)O; 1Nal = N[C@@H](Cc1cccc2ccccc12)C(=O)O; Ala(4-THP) = N[C@@H](CC1CCOCC1)C(=O)O; Val(3-OH) = CC(C)(O)[C@H](N)C(=O)O; tBuAla = CC(C)(C)C[C@H](N)C(=O)O; 4Pal = N[C@@H](Cc1ccncc1)C(=O)O; Gly(cPr) = N[C@H](C(=O)O)C1CC1; Chg = N[C@H](C(=O)O)C1CCCCC1; PEG4 = NCCOCCOCCOCCOCCC(=O)O; Tle = CC(C)(C)[C@H](N)C(=O)O; hLeu = CC(C)CC[C@H](N)C(=O)O; NMeS = CN[C@@H](CO)C(=O)O; Nle = CCCC[C@H](N)C(=O)O; CH2 = C([*:1])[*:2] Bounds are passed on as bounds.

Drawing on patent US20250296959A1, “B7-H3 TARGETING PEPTIDES AND CONSTRUCTS THEREOF” (Mariana Oncology Inc., priority 2024, published 2025), this text covers Kd for nine compounds.

The target in the experiment is T1, human 4lg B7-H3 (Homo sapiens, UniProt Q5ZPR3).
T1 sequence (Q5ZPR3 29-534): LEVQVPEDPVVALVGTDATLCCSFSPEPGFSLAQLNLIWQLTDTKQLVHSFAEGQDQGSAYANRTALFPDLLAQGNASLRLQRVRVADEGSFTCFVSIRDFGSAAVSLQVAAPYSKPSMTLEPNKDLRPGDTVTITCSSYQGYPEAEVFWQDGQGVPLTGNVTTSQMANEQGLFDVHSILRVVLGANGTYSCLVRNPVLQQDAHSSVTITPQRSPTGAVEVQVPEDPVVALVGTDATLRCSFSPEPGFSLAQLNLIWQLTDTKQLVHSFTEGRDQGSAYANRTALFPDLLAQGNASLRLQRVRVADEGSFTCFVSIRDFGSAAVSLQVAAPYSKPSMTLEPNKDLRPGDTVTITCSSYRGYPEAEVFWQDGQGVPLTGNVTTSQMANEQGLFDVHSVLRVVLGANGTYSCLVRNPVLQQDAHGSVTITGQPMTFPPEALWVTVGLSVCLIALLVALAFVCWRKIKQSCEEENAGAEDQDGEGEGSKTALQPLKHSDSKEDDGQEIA
As to the kind of experiment: Affinity determination by surface plasmon resonance (SPR) to 4Ig B7-H3. To be noted: 4Ig B7-H3. On the technique in general: Surface plasmon resonance follows binding to a sensor surface in real time, without labels.

[1] abbreviates: SPR KD—25° C., 25° C. flow cell temperature.
The mark [2] stands for this setting: SPR KD—37° C., 37° C. flow cell temperature.

In turn, `CCCC[C@H](NC(C)=O)C(=O)N[C@@H](Cc1ccc(O)cc1)C(=O)N[C@H]1CSSC[C@@H](C(=O)N[C@@H](Cc2c[nH]c3ccccc23)C(=O)N[C@@H](Cc2ccccc2)C(=O)N[C@H](C(=O)N[C@H](CCCCNC(=O)CN2CCN(CC(=O)O)CCN(CC(=O)O)CCN(CC(=O)O)CC2)C(N)=O)[C@@H](C)O)NC(=O)[C@H](Cc2ccc(O)cc2)NC(=O)[C@H](C(C)C)NC(=O)[C@H](CC(=O)O)NC(=O)[C@H](Cc2ccc(O)cc2)NC(=O)[C@H](CCCCN)NC(=O)CNC(=O)[C@H](C2CCCCC2)NC1=O` [compound 54, Ac-Nle-Y-C-ChG-G-K-Y-D-V-Y-C-W-F-Thr-dLys(DOTA)-CONH2] (Ac-[Nle]YC[Chg]GKYDVYCWFT[dK](DOTA)-NH2; disulfide 3-11) returned a Kd under setting [1] of 0.01 to 0.1 µM.

Regarding `CC(=O)N[C@@H](CCC(C)C)C(=O)N[C@@H](Cc1ccc(O)cc1)C(=O)N[C@H]1CSCSC[C@@H](C(=O)N[C@@H](Cc2cccc3ccccc23)C(=O)N[C@@H](Cc2ccccc2)C(=O)N(C)[C@@H](CO)C(=O)N[C@H](CCCCNC(=O)CN2CCN(CC(=O)O)CCN(CC(=O)O)CCN(CC(=O)O)CC2)C(N)=O)NC(=O)[C@H](Cc2ccc(O)cc2)NC(=O)[C@H](C(C)C)NC(=O)[C@H](CC(=O)O)NC(=O)[C@H](Cc2ccncc2)NC(=O)[C@H](CCCCN)NC(=O)CNC(=O)[C@H](C(C)(C)C)NC1=O` [compound 297, Ac-hLeu-Y-C(CH2)-Tbg-G-K-4PyA-D-V-Y-C-1Nal-F-NMeSer-dLys(DOTA)-CONH2] (Ac-[hLeu]YC[Tle]GK[4Pal]DVYC[1Nal]F[NMeS][dK](DOTA)-NH2; linker 3-11 via CH2), the Kd under setting [1] fell in the range of 0.1 to 0.3 µM.

`CC(=O)N[C@@H](CCC(C)C)C(=O)N[C@@H](Cc1ccc(O)cc1)C(=O)N[C@H]1CSSC[C@@H](C(=O)N[C@@H](Cc2c[nH]c3ccccc23)C(=O)N[C@@H](Cc2ccccc2)C(=O)N[C@H](C(=O)N[C@H](CCCCNC(=O)CN2CCN(CC(=O)O)CCN(CC(=O)O)CCN(CC(=O)O)CC2)C(N)=O)[C@@H](C)O)NC(=O)[C@H](Cc2ccc(O)cc2)NC(=O)[C@H](C(C)C)NC(=O)[C@H](CC(=O)O)NC(=O)[C@H](Cc2ccc(O)cc2)NC(=O)[C@H](CCCCN)NC(=O)CNC(=O)[C@H](C2CC2)NC1=O` [compound 119, Ac-hLeu-Y-C-Cpg-G-K-Y-D-V-Y-C-W-F-Thr-dLys(DOTA)-CONH2] (Ac-[hLeu]YC[Gly(cPr)]GKYDVYCWFT[dK](DOTA)-NH2; disulfide 3-11) showed a Kd under setting [1] of 0.01 to 0.1 µM.

In turn, `CC(=O)N[C@@H](CCC(C)C)C(=O)N[C@@H](Cc1ccc(O)cc1)C(=O)N[C@H]1CSSC[C@@H](C(=O)N[C@@H](Cc2c[nH]c3ncccc23)C(=O)N[C@@H](Cc2ccccc2)C(=O)N[C@H](C(=O)N[C@H](CCCCNC(=O)CN2CCN(CC(=O)O)CCN(CC(=O)O)CCN(CC(=O)O)CC2)C(N)=O)[C@@H](C)O)NC(=O)[C@H](Cc2ccc(O)cc2)NC(=O)[C@H](C(C)C)NC(=O)[C@H](CC(=O)O)NC(=O)[C@H](Cc2ccc(O)cc2)NC(=O)[C@H](CCCCN)NC(=O)CNC(=O)[C@H](C(C)C)NC1=O` [compound 156, Ac-hLeu-Y-C-V-G-K-Y-D-V-Y-C-7NW-F-Thr-dLys(DOTA)-CONH2] (Ac-[hLeu]YCVGKYDVYC[Trp(7-aza)]FT[dK](DOTA)-NH2; disulfide 3-11) displayed a Kd under setting [1] of 0.01 to 0.1 µM.

`CCCC[C@H](NC(C)=O)C(=O)N[C@@H](Cc1ccc(O)cc1)C(=O)N[C@H]1CSSC[C@@H](C(=O)N[C@@H](Cc2c[nH]c3ccccc23)C(=O)N[C@@H](Cc2ccccc2)C(=O)N[C@H](C(=O)N[C@H](CCCCNC(=O)CN2CCN(CC(=O)O)CCN(CC(=O)O)CCN(CC(=O)O)CC2)C(N)=O)[C@@H](C)O)NC(=O)[C@H](Cc2ccc(O)cc2)NC(=O)[C@H](C(C)C)NC(=O)[C@H](CC(N)=O)NC(=O)[C@H](Cc2ccc(O)cc2)NC(=O)[C@H](CCCCN)NC(=O)CNC(=O)[C@H](C(C)C)NC1=O` [compound 80, Ac-Nle-Y-C-V-G-K-Y-N-V-Y-C-W-F-Thr-dLys(DOTA)-CONH2] (Ac-[Nle]YCVGKYNVYCWFT[dK](DOTA)-NH2; disulfide 3-11) returned a Kd under setting [1] of 0.01 to 0.1 µM.

On to `CC(=O)N[C@@H](CCC(C)C)C(=O)N[C@@H](Cc1ccc(O)cc1)C(=O)N[C@H]1CSSC[C@@H](C(=O)N[C@@H](Cc2c[nH]c3ccc(F)cc23)C(=O)N[C@@H](CC(C)(C)C)C(=O)N[C@H](C(=O)N[C@H](CCCCNC(=O)CN2CCN(CC(=O)O)CCN(CC(=O)O)CCN(CC(=O)O)CC2)C(=O)O)[C@@H](C)O)NC(=O)[C@H](Cc2ccc(O)cc2)NC(=O)[C@H](C(C)C)NC(=O)[C@H](CC(=O)O)NC(=O)[C@H](CC2CCOCC2)NC(=O)[C@H](CCCCN)NC(=O)CNC(=O)[C@H](C(C)(C)C)NC1=O` [compound 360, Ac-hLeu-Y-C-Tbg-G-K-ThpA-D-V-Y-C-5FW-tBuAla-Thr-dLys(DOTA)-COOH] (Ac-[hLeu]YC[Tle]GK[Ala(4-THP)]DVYC[Trp(5-F)][tBuAla]T[dK](DOTA)-OH; disulfide 3-11), for which the Kd under setting [1] lay within 0.001 to 0.01 µM.

In the case of `CCCC[C@H](NC(=O)[C@H](Cc1c[nH]c2ccc(F)cc12)NC(=O)[C@@H]1CSSC[C@H](NC(=O)[C@H](Cc2ccc(O)cc2)NC(=O)[C@H](CCC(C)C)NC(C)=O)C(=O)N[C@@H](C(C)(C)C)C(=O)NCC(=O)N[C@@H](CCCCN)C(=O)N[C@@H](CC2CCOCC2)C(=O)N[C@@H](CC(=O)O)C(=O)N[C@@H](C(C)C)C(=O)N[C@@H](Cc2ccc(O)cc2)C(=O)N1)C(=O)N[C@H](C(=O)N[C@H](CCCCNC(=O)CN1CCN(CC(=O)O)CCN(CC(=O)O)CCN(CC(=O)O)CC1)C(=O)O)C(C)(C)O` [compound 327, Ac-hLeu-Y-C-Tbg-G-K-ThpA-D-V-Y-C-5FW-Nle-hydroxyVal-dLys(DOTA)-COOH] (Ac-[hLeu]YC[Tle]GK[Ala(4-THP)]DVYC[Trp(5-F)][Nle][Val(3-OH)][dK](DOTA)-OH; disulfide 3-11), under setting [2], the Kd fell in the range of 0.01 to 0.1 µM.

With `CCCC[C@H](NC(C)=O)C(=O)N[C@@H](Cc1ccc(O)cc1)C(=O)N[C@H]1CSSC[C@@H](C(=O)N[C@@H](Cc2c[nH]c3ccccc23)C(=O)N[C@@H](Cc2ccccc2)C(=O)N[C@@H](CCC(=O)O)C(N)=O)NC(=O)[C@H](Cc2ccc(O)cc2)NC(=O)[C@H](C(C)C)NC(=O)[C@H](CC(=O)O)NC(=O)[C@H](Cc2ccc(O)cc2)NC(=O)[C@H](CCCCN)NC(=O)CNC(=O)[C@H](C(C)C)NC1=O` [compound 34, Ac-Nle-Y-C-V-G-K-Y-D-V-Y-C-W-F-E-CONH2] (Ac-[Nle]YCVGKYDVYCWFE-NH2; disulfide 3-11), the Kd reads like this: under setting [1], 0.001 to 0.01 µM; under setting [2], 0.01 to 0.1 µM.

Consider `CC(=O)N[C@@H](CCC(C)C)C(=O)N[C@@H](Cc1ccc(O)cc1)C(=O)N[C@H]1CSSC[C@@H](C(=O)N[C@@H](Cc2c[nH]c3ccc(F)cc23)C(=O)N[C@@H](Cc2ccccc2)C(=O)N[C@H](C(=O)N[C@H](C)C(=O)O)C(C)(C)O)NC(=O)[C@H](Cc2ccc(O)cc2)NC(=O)[C@H](C(C)C)NC(=O)[C@H](CC(=O)O)NC(=O)[C@H](CC2CCN(C(=O)CCOCCOCCOCCOCCNC(=O)CN3CCN(CC(=O)O)CCN(CC(=O)O)CCN(CC(=O)O)CC3)CC2)NC(=O)[C@H](CC2CCN(CC(=O)O)CC2)NC(=O)CNC(=O)[C@H](C(C)(C)C)NC1=O` [compound 488, Ac-hLeu-Y-C-Tbg-G-Pip(CH2COOH)Ala-Pip(PEG4-DOTA)Ala-D-V-Y-C-5FW-F-hydroxyVal-dAla-COOH] (Ac-[hLeu]YC[Tle]G[Ala(1-CH2CO2H-4-piperidyl)][Ala(piperidin-4-yl)]([PEG4-DOTA])DVYC[Trp(5-F)]F[Val(3-OH)][dA]-OH; disulfide 3-11), for which, under setting [2], the Kd is under 0.001 µM.

By Kd is commonly meant the free concentration of one partner at which half of the binding sites on the other are occupied at equilibrium, for simple one-to-one binding. The low end stands for a tighter complex, the high end for a looser complex.
